Results as given in patent publication US6509002B1, “Diagnostic agent for diabetes” (priority 1997, dated 2003).
Each block holds one compound with its values, some of them ahead of it.

Assay: ^13C breath test, intravenous administration (femoral vein), diabetic vs normal rats
Assay type: in vivo, rat
Conditions: for Δ^13C value (‰) at 5 min after the administration: 10 mg/kg from the femoral vein, Example 24
Source text: As test animals, male Sprague-Dawley strain (SD) neonatal rats were purchased from Nippon Charles River K. K. together with their lactating rats. […] Insulin secretion-deficient type diabetes was generated by administering streptozotocin (STZ) to neonatal rats (“Saibokogaku (Cell Engineering)”, Extra Issue, medical Experiment Manual Series, Strategy for Study of Diabetes, edited by Susumu Seino and Yoshikazu Oka, published by Shujunsha Co., Japan). STZ was subcutaneously administered to 2-day-old rats at a dose of 90 mg/kg. […] Two days after the administration, blood was collected by cardiac puncture, and the casual blood sugar level of each rat was measured with Terumo […] (blood sugar measurement set). […] Breath tests were carried out according to the method as described in (2)-1 or (2)-2 below on diabetic rats prepared in (1) above (8-10-week-old) and normal rats (8-10-week-old). […] A blood sample was collected from the tail vein, and its sugar level was determined using Terumo […] (blood sugar measurement set). […] Fine Science Tools Inc.).

[1] = diabetic rats, 5 mg/kg from the femoral vein, Example 28
[2] = normal rats, 5 mg/kg from the femoral vein, Example 28
[3] = diabetic rats, 50 mg/kg, printed as administered orally from the femoral vein, Example 19
[4] = normal rats, 50 mg/kg, printed as administered orally from the femoral vein, Example 19
[5] = diabetic rats, 50 mg/kg from the femoral vein, Example 14
[6] = normal rats, 50 mg/kg from the femoral vein, Example 14
[7] = diabetic rats, 40 mg/kg from the femoral vein, Example 36
[8] = normal rats, 40 mg/kg from the femoral vein, Example 36
[9] = diabetic rats, 20 mg/kg from the femoral vein, Example 23
[10] = normal rats, 20 mg/kg from the femoral vein, Example 23
[11] = diabetic rats, 50 mg/kg from the femoral vein, Example 27
[12] = normal rats, 50 mg/kg from the femoral vein, Example 27
[13] = diabetic rats, 50 mg/kg from the femoral vein, Example 31
[14] = normal rats, 50 mg/kg from the femoral vein, Example 31

SMILES: O=C(O)CC(O)(C[13C](=O)O)[13C](=O)O (stereo not shown) [1,6-^13C-citric acid]
slope from 10 to 14 min after the administration [1]: −10.45±1.30 ‰/4 min | Δ^13C value (‰) at 20 min after the administration [1]: 54.38±3.34 ‰ | slope from 10 to 14 min after the administration [2]: −5.81±0.92 ‰/4 min | Δ^13C value (‰) at 20 min after the administration [2]: 67.49±1.82 ‰

SMILES: Cl.NCCCC[C@H](N)[13C](=O)O [1-^13C-lysine hydrochloride]
slope from 15 to 20 min after the administration [3]: −26.64±5.36 ‰/5 min | time course of Δ^13C values (‰) [3]: increased up to about 10 min after the administration, but thereafter decreased gradually up to 20 min | Δ^13C value (‰) at 8 min after the administration [3]: 181.53±23.82 ‰ | slope from 15 to 20 min after the administration [4]: −4.58±6.91 ‰/5 min | time course of Δ^13C values (‰) [4]: increased up to about 11 min after the administration of 1-^13C-lysine hydrochloride, and thereafter remained at an almost constant level up to 20 min | Δ^13C value (‰) at 8 min after the administration [4]: 96.95±27.48 ‰

SMILES: N[C@@H](CCC(=O)O)[13C](=O)O [1-^13C-glutamic acid]
time course of Δ^13C values (‰) (rat, in vivo, 10 mg/kg): increased sharply up to about 4 min after the administration of 1-^13C-glutamic acid, but thereafter decreased gradually up to 20 min

SMILES: N=C(N)NCCC[C@H](N)[13C](=O)O [1-^13C-arginine]
slope from 2 to 7 min after the administration [5]: 146.90±18.97 ‰/5 min | time course of Δ^13C values (‰) [5]: increased up to about 12 min after the administration, but thereafter decreased gradually up to 20 min | Δ^13C value (‰) at 10 min after the administration [5]: 192.40±30.23 ‰ | slope from 2 to 7 min after the administration [6]: 75.02±10.01 ‰/5 min | time course of Δ^13C values (‰) [6]: continued increasing up to 20 min | Δ^13C value (‰) at 10 min after the administration [6]: 111.68±14.15 ‰

time course of Δ^13C values (‰) (rat, in vivo, 100 mg/kg): continued increasing up to 20 min
SMILES: O=C[13C@H](O)[C@@H](O)[C@@H](O)[C@H](O)CO [2-^13C-galactose]

Δ^13C value (‰) at 5 min after the administration (diabetic rats (n=2)): 52.89±10.83 ‰ | Δ^13C value (‰) at 5 min after the administration (normal rats): 42.56±2.43 ‰
SMILES: CC(C)C[C@H](N)[13C](=O)O [1-^13C-leucine]

slope from 1 to 2 min after the administration [7]: 95.68±16.33 ‰/min | Δ^13C value (‰) at 20 min after the administration [7]: 193.62±22.21 ‰ | slope from 1 to 2 min after the administration [8]: 41.16±8.89 ‰/min | Δ^13C value (‰) at 20 min after the administration [8]: 92.2±12.64 ‰
SMILES: Cc1c(N([13CH3])[13CH3])c(=O)n(-c2ccccc2)n1C [N,N-dimethyl-^13C-aminopyrin]
time course of Δ^13C values (‰) [7]: increased sharply up to about 5 min after the administration, and thereafter remained at an almost constant level up to 20 min | time course of Δ^13C values (‰) [8]: increased sharply up to about 3 min after the administration of N,N-dimethyl-^13C-aminopyrin, and thereafter increased gradually up to 20 min

slope from 1 to 2 min after the administration [9]: 38.50±2.33 ‰/min | Δ^13C value (‰) at 2 min after the administration [9]: 42.87±2.09 ‰ | slope from 1 to 2 min after the administration [10]: 65.72±10.66 ‰/min | Δ^13C value (‰) at 2 min after the administration [10]: 78.97±13.98 ‰
SMILES: N[C@@H](CS)[13C](=O)O [1-^13C-cysteine]

^13C value (‰) at 10 min after the administration [11]: 202.08±6.05 ‰ | slope from 2 to 4 min after the administration [11]: 96.83±17.69 ‰/2 min | ^13C value (‰) at 10 min after the administration [12]: 130.30±11.47 ‰ | slope from 2 to 4 min after the administration [12]: 60.69±6.80 ‰/2 min
SMILES: [13CH3]C(O)C(=O)[O-].[Na+] (stereo not shown) [3-^13C-sodium lactate]
time course of Δ^13C values (‰) [11]: increased sharply up to about 7 min after the administration, but thereafter decreased gradually up to 20 min | time course of Δ^13C values (‰) [12]: increased sharply up to about 5 min after the administration of 3-^13C-sodium lactate, and thereafter increased gradually up to 20 min

slope from 10 to 20 min after the administration [13]: −4.40±2.21 ‰/10 min | slope from 10 to 20 min after the administration [14]: 1.43±1.33 ‰/10 min | time course of Δ^13C values (‰) [14]: continued increasing up to 20 min
SMILES: CCCCCCCCCCCCCCC[13C](=O)O [1-^13C-palmitic acid]
time course of Δ^13C values (‰) [13]: increased sharply up to about 5 min after the administration, but thereafter decreased gradually up to 20 min

Δ^13C value (‰) at 20 min after the administration (rat, in vivo): 94.68 ‰ | slope from 2 to 6 min after the administration (rat, in vivo, 100 mg/kg): 21.4±1.84 ‰/4 min | Δ^13C value (‰) at 20 min after the administration (rat, in vivo, 100 mg/kg): 58.75±2.73 ‰
SMILES: O=[13C](CO)[C@@H](O)[C@H](O)[C@H](O)CO [2-^13C-fructose]
